EP0942911B1, “BENZOPYRANOPYRROLE AND BENZOPYRANOPYRIDINE ALPHA-1 ADRENERGIC COMPOUNDS” (Abbott Laboratories, priority 1996, dated 1998)
Where a name gives a salt, the structure may show the parent alone. Read-outs that look alike come from different tables or passages of the source.

Columns and labels:
Experiment in all cases: biochemical
[1] = biological target: T1, α-1A adrenoreceptor (rat submaxillary gland) (Rattus norvegicus, UniProt P43140); assay type: binding; details: read-out: Radioligand Binding (Ki, nM) 1A (Rat)
T1 sequence (P43140 1-466): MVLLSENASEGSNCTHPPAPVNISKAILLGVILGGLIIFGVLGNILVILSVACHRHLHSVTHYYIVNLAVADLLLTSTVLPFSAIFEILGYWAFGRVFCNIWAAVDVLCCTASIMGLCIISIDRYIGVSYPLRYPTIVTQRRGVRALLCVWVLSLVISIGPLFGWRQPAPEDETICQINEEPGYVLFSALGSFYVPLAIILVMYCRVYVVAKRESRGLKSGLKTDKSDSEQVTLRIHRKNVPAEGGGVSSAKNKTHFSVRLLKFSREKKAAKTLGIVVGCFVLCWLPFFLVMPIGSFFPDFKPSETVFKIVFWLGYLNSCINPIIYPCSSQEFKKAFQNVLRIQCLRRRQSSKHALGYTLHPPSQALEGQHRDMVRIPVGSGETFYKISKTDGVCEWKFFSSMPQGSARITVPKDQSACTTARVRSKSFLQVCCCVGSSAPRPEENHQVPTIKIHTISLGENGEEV
Method: Additionally, binding affinity against the pharrnacologically defined α-1A adrenoreceptor (rat submaxillary gland) was measured.
(§1) On the fifth day of culture, growth medium was removed from cells grown in roller bottles, and the cells were washed twice with PBS (Sigma, 120 mM NaCl, 2.7 mM KCl, 10 mM Na2HPO4-NaH2PO4, pH = 7.4). Cells were detached from the roller bottles by incubating for 15 minutes at 37 °C in a Tris-EDTA solution (10 mM Tris, 100 mM NaCl, 1 mM EDTA, pH = 7.4). The cell suspension from each roller bottle was decanted into tared centrifuge tubes and kept on ice. An aliquot of each cell suspension was generally taken for cell counting. Cells were centrifuged at 3000 X G for 5 min at 2-4 °C, washed with PBS and recentrifuged. The supernatant was decanted and the pellet weighed to determine the wet weight of cells. Cells were washed a final time in 40 vol 5 mM Tris-HCl, 5 mM EDTA, pH = 7.7, and centrifuged at 40,000 X G for 10 minutes. Cells were homogenized in 10 mL of 50 mM Tris-HCl, 5 mM EDTA (pH = 7.4) and diluted to 40 mL/tube. Homogenates were centrifuged at 40,000 X G for 10 minutes. The supernatant was decanted and the pellets rehomogenized in 50 mM Tris-HCl (pH = 7.4) and centrifuged as before. The supernatant was decanted and the homogenate resuspended in 6.25 volumes (per gram wet weight) of 50 mM Tris-HCl and aliquots of the pooled homogenates frozen in liquid N2 and stored at -70 °C until the time of assay. Rat submaxillary glands were used for α-1A adrenoreceptors and were prepared essentially as described (Michel, A. D., Loury, D. N. and Whiting, R. L., Brit. J. Pharmacol. 98: 83-889 (1989)).
(§2) Receptor binding assays for α-1 adrenoreceptors were performed essentially as described by Greengrass and Bremner (Eur. J. Pharmacol. 55: 323-326 (1979)). […] Radioactivity was determined by standard liquid scintillation techniques. Data were analyzed as previously described (Hancock, A. A., Kyncl, J. J., Martin, Y. C. and DeBernardis, J. F., J. Receptor Res. 8: 23-46 (1988)).

α-1a adrenoreceptor = biological target: T2, α-1a adrenoreceptor (Bos taurus, UniProt P18130); assay type: binding, bovine; details: read-out: Radioligand Binding (Ki, nM) 1a (Bovine)
T2 sequence (P18130 1-466): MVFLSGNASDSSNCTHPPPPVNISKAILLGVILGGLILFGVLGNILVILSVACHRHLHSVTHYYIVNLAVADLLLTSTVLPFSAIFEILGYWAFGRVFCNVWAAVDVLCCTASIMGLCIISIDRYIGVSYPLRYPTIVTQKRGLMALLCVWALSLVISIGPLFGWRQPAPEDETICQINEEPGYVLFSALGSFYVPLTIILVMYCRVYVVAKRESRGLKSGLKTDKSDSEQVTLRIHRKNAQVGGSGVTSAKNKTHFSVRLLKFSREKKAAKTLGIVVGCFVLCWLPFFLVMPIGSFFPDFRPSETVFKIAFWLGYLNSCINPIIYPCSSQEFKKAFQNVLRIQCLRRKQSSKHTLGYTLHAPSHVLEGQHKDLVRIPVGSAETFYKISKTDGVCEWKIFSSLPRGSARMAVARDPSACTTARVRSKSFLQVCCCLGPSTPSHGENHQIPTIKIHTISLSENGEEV
Text: (§3) The cDNA clones encoding the α-1 adrenoreceptors (α-1a, α-1b, and α-1d) were obtained from TULCO (Triangle Universities Licensing Consortium, Research Triangle Park, NC) and inserted into the eukaryotic expression vector SnaB30. In this vector, expression of the adrenoreceptor gene is under the transcriptional control of an SV40 early promoter. Positive drug selection is provided by a neomycin-resistance gene. Mouse fibroblast cells (LTK) were transfected with the α1 expression plasmids and grown in Dulbecco's modified Eagle's medium (DMEM) containing 10% fetal calf serum and 30 µM G418. Stable G418-resistant parental lines were generated, with successful expression of adrenoreceptor protein monitored using radioligand binding techniques. Stable single cell clones derived from the parental lines were screened in adrenoreceptor binding assays to identify clones having high adrenoreceptor density. Roller bottle cultures of the cloned lines were used to provide cell membranes for subsequent adrenoreceptor binding characterization studies. A cell line containing the SnaB30 vector expressing the human erythropoietin gene served as a negative control.
(§4) For adrenoreceptor binding assays, large scale membrane preparations were utilized in which 6 million cells were seeded into small (450 cm^2) Corning tissue culture roller bottles. 200 mL of DMEM containing 10% fetal calf serum and 300 µM G418 were added to each roller bottle. A 95% air / 5% CO2 gas mixture (sterile) was injected into each roller bottle prior to sealing. The bottles were then incubated at 37 °C on a roller rack for 5 days. Cells were re-fed with fresh medium after 3 days in culture.
as §1, §2

α-1b adrenoreceptor = biological target: T3, α-1b adrenoreceptor (Mesocricetus auratus, UniProt P18841); assay type: binding, hamster; details: read-out: Radioligand Binding (Ki, nM) 1b (Hamster)
T3 sequence (P18841 1-515): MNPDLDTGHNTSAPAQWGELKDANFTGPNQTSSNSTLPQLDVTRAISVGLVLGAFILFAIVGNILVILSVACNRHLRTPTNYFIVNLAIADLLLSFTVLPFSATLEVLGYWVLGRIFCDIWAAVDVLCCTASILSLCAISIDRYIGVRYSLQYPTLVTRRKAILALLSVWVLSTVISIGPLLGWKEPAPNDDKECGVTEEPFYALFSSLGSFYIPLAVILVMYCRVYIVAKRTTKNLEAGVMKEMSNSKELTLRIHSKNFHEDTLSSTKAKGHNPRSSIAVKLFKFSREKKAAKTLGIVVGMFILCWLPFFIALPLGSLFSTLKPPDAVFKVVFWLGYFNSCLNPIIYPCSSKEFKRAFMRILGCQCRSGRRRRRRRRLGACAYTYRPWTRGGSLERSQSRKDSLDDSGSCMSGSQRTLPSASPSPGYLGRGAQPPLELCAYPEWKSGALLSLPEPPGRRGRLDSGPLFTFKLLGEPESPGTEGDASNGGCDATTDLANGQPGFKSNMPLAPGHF
Text: as §3, §4, §1, §2

α-1d adrenoreceptor = biological target: T4, α-1d adrenoreceptor (Rattus norvegicus, UniProt P23944); assay type: binding; details: read-out: Radioligand Binding (Ki, nM) 1d (Rat)
T4 sequence (P23944 1-561): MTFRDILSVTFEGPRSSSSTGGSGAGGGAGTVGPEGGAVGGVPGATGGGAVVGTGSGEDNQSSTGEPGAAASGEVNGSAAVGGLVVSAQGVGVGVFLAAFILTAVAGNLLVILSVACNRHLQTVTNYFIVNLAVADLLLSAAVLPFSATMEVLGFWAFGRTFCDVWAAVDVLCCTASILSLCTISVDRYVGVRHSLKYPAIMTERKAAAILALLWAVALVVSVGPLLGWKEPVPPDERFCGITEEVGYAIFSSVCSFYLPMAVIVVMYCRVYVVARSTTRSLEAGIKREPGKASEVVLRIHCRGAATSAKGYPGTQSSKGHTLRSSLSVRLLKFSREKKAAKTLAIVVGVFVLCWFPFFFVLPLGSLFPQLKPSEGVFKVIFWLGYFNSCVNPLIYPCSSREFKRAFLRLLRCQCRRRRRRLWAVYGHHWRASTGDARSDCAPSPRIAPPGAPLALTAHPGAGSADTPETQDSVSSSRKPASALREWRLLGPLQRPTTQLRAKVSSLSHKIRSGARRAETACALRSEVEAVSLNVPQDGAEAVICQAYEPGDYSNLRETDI
Text: as §3, §4, §1, §2

[2] = [3H]-prazosin radioligand, rat submaxillary gland membranes
[3] = [3H]-prazosin radioligand, cloned receptor in LTK cell membranes

| SMILES | Ki [1] [nM] | Ki (α-1a adrenoreceptor) [nM] | Ki (α-1b adrenoreceptor) [nM] | Ki (α-1d adrenoreceptor) [nM] | Ki [1, 2] [nM] | Ki (α-1a adrenoreceptor; [3]) [nM] | Ki (α-1b adrenoreceptor; [3]) [nM] | Ki (α-1d adrenoreceptor; [3]) [nM] |
| --- | --- | --- | --- | --- | --- | --- | --- | --- |
| COc1cc2[nH]c(=O)n(CCCCN3C[C@@H]4COc5ccccc5[C@H]4C3)c(=O)c2cc1OC (racemic) [Example 80, 3-[4-((±)-trans-1,2,3,3a,4,9b-hexahydro-[1]-benzopyrano[3,4-c]pyrrol-2-yl)butyl]-6,7-dimethoxy-quinazoline-2,4(1H,3H)-dione hydrochloride] | 0.442 | 0.17 | 2.5 | 0.765 |  |  |  |  |
| COc1cc2[nH]c(=O)n(CCCN3CC[C@H]4c5c(OC)cccc5OC[C@@H]4C3)c(=O)c2cc1OC (racemic) [Example 83, 3-[3-(±)-trans-10-Methoxy-1,3,4,4a,5,10b-hexahydro-2H-[1]-benzopyrano[3,4-c]pyrido-3-yl)propyl]-6,7-dimethoxy-quinazoline-2,4(1H,3H)-dione hydrochloride] |  |  |  |  | 0.383 | 0.217 | 3.07 | 0.807 |
| COc1cc(O)cc2c1[C@@H]1CN(CCCCn3c(=O)[nH]c4c(sc5ncc(-c6ccccc6)nc54)c3=O)C[C@@H]1CO2 (relative stereo) [Example 104, 3-[4-(-cis-7-Hydroxy-9-methoxy-1,2,3,3a,4,9b-hexahydro-[1]-benzopyrano[3,4-c]pyrrol-2-yl)butyl]-8-phenyl-pyrazino[2',3':4,5]thieno[3,2-d]pyrimidine-2,4(1H,3H)-dione] |  |  |  |  | 3.59 | 0.427 | 266 | 5.2 |
| COc1cccc2c1[C@H]1CN(CCCCn3c(=O)[nH]c4c(sc5cccnc54)c3=O)C[C@@H]1CO2 [Example 4, 3-[4-((3aR,9bS)-trans-9-Methoxy-1,2,3,3a,4,9b-hexahydro-[1]-benzopyrano[3,4-c]pyrrol-2-yl)butyl]-pyrido[2',3':4,5]thieno[3,2-d]pyrimidine-2,4(1H,3H)-dione hydrochloride] |  |  |  |  | 0.097 | 0.049 | 0.867 | 0.377 |
| COc1cccc2c1[C@H]1CN(CCCCn3c(=O)[nH]c4c(sc5c(Cl)ccnc54)c3=O)C[C@@H]1CO2 [Example 5, 3-[4-((3aR,9bS)-trans-9-Methoxy-1,2,3,3a,4,9b-hexahydro-[1]-benzopyrano[3,4-c]pyrrol-2-yl)butyl]-6-chloro-pyrido[2',3':4,5]thieno[3,2-d]pyrimidine-2,4(1H,3H)-dione dihydrochloride] |  |  |  |  | 0.268 | 0.086 | 2.01 | 0.638 |
| COc1cccc2c1[C@H]1CN(CCCCn3c(=O)[nH]c4c(sc5ccc(Cl)nc54)c3=O)C[C@@H]1CO2 [Example 6, 3-[4-((3aR,9bS)-trans-9-Methoxy-1,2,3,3a,4,9b-hexahydro-[1]-benzopyrano[3,4-c]pyrrol-2-yl)butyl]-8-chloro-pyrido[2',3':4,5]thieno[3,2-d]pyrimidine-2,4(1H,3H)-dione dihydrochloride] |  |  |  |  | 0.409 | 0.173 | 2 | 0.302 |
| COc1ccc2sc3c(=O)n(CCCCN4C[C@@H]5COc6cccc(OC)c6[C@H]5C4)c(=O)[nH]c3c2n1 [Example 7, 3-[4-((3aR,9bS)-trans-9-Methoxy-1,2,3,3a,4,9b-hexahydro-[1]-benzopyrano[3,4-c]pyrrol-2-yl)butyl]-8-methoxy-pyrido[2',3':4,5]thieno[3,2-d]pyrimidine-2,4(1H,3H)-dione hydrochloride] |  |  |  |  | 0.53 | 0.215 | 1.61 | 0.438 |
| COc1cccc2c1[C@H]1CN(CCCCn3c(=O)[nH]c4c(sc5c(OC)ccnc54)c3=O)C[C@@H]1CO2 [Example 8, 3-[4-((3aR,9bS)-trans-9-Methoxy-1,2,3,3a,4,9b-hexahydro-[1]-benzopyrano[3,4-c]pyrrol-2-yl)butyl]-6-methoxy-pyrido[2',3':4,5]thieno[3,2-d]pyrimidine-2,4(1H,3H)-dione dihydrochloride] |  |  |  |  | 0.762 | 0.362 | 4.19 | 1.42 |
